Test [1] concerns the target T1, bovine parathyroid cell calcium receptor (Bos taurus, UniProt P35384).
T1 construct: isolation of a single clone (BoPCaR 1) with a cDNA insert of 5.3 kb; expressed in transfected cells
T1 sequence (P35384 20-1085): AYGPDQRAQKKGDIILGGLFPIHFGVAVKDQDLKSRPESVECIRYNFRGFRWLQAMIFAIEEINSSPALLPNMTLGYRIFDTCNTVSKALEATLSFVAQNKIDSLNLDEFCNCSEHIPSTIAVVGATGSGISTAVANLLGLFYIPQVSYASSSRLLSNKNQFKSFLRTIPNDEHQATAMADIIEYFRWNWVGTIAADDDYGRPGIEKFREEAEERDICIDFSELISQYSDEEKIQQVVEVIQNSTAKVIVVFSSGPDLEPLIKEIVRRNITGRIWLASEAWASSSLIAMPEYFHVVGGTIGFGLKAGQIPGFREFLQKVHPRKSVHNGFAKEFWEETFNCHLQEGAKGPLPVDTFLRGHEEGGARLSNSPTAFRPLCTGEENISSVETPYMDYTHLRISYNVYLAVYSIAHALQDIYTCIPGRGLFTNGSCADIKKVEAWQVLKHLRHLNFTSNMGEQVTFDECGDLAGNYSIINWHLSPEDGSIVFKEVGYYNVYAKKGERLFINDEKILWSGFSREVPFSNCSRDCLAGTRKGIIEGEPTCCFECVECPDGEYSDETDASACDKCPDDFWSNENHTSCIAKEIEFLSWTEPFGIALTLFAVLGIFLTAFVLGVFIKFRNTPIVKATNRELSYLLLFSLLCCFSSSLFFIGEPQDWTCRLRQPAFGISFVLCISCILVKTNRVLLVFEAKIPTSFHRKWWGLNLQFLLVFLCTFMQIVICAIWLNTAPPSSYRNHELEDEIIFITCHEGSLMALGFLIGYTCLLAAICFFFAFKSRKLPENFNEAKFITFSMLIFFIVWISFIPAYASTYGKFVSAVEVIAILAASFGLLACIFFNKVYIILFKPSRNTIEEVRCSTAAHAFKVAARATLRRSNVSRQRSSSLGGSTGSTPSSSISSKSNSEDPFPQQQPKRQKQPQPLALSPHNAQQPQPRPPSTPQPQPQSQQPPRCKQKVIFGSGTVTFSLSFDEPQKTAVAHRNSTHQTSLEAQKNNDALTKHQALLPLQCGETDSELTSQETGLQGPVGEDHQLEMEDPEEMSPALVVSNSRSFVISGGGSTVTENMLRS
Briefly: Cl- current in Xenopus oocytes injected with BoPCaR 1. Format: cell-based. On the procedure:
Several pharmacological and biochemical criteria were used to identify this clone as encoding a bona fide bovine parathyroid Ca^2+ receptor. […] These responses increased markedly over a period of one to four days after injection of the eggs with cRNA prepared from the BoPCaR 1 cDNA. Furthermore, the ranges of the concentrations of the two cations eliciting this response were very similar to those shown previously to act on bovine parathyroid cells in vitro.
Xenopus oocytes were injected with BoPCaR 1, the 5.3 Kb cDNA encoding a bovine parathyroid cell calcium receptor as described in Example 25. After two to three days, Cl^− currents were examined in the oocytes using a two-electrode voltage clamp.
Xenopus oocytes were injected with BoPCaR 1 as described in Example 25. After two to three days, Cl^− currents were examined in the oocytes using two electrode voltage clamp.

The test system of test [2] is parathyroidectomized rats. Briefly: Serum ionized Ca2+ in parathyroidectomized animals. The format is in vivo, rat. From the text:
To determine the primary target tissue upon which NPS R-467 acts to cause a hypocalcemic response, the parathyroid glands in rats were surgically removed. Animals receiving a total parathyroidectomy become hypocalcemic and are largely dependent upon dietary calcium to maintain serum Ca^2+ homeostasis.

In test [3] the target is T2, C-cell calcium receptor (Rattus norvegicus, UniProt P48442).
T2 construct: cultured cell lines expressing the C-cell phenotype (e.g., rat medullary thyroid carcinoma cells; rMTC 6-23 cells); host or cells: rMTC 6-23 rat medullary thyroid carcinoma cells
T2 sequence (P48442 20-1079): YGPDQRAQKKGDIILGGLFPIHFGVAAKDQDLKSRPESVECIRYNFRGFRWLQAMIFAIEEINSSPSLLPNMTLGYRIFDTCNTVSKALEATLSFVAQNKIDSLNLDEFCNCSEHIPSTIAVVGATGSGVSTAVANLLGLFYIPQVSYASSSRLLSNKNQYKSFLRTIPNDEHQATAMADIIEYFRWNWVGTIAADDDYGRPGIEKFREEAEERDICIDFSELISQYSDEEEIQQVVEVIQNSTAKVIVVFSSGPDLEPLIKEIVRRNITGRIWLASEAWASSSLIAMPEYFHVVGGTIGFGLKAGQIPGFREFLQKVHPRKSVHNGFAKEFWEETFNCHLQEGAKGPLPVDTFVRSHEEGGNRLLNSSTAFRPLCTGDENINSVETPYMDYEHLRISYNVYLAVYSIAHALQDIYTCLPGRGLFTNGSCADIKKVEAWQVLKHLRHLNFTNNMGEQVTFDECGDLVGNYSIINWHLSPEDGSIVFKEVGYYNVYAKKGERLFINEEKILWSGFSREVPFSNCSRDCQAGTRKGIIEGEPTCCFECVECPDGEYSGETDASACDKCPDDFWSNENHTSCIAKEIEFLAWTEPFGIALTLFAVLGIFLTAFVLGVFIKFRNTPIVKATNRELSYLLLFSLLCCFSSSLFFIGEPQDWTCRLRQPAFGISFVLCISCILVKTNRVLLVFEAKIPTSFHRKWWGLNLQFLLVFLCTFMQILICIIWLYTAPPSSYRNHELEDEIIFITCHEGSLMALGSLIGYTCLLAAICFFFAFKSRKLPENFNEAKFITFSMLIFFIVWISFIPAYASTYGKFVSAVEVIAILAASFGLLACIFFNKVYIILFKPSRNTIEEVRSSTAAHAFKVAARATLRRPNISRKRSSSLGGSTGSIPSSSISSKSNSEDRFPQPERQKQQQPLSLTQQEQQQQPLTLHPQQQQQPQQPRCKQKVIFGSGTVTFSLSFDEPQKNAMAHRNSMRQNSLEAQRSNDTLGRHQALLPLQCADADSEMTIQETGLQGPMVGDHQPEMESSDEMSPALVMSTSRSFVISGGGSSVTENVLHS
Briefly: [Ca2+]i in rat medullary thyroid carcinoma C-cell line (44-2 cells). The conditions noted are these: 1 mM extracellular Ca2+, read-out: EC50 for increase in [Ca2+]i. Format: cell-based. An excerpt: C-cells appear to express a calcium receptor that is structurally similar to that present on parathyroid cells (see Example 31). […] Thus, compounds in this structural series appear to activate the C-cell calcium receptor.

The target in test [4] is T3, parathyroid cell calcium receptor (Bos taurus, UniProt P35384).
T3 sequence (P35384 20-1085): T1 sequence (P35384 20-1085)
Briefly: Mobilization of intracellular Ca2+ ([Ca2+]i, fura-2) in bovine parathyroid cells. The format is cell-based. Also on record: Parathyroid glands were obtained from freshly slaughtered calves (12-15 weeks old); endogenous in cells; host or cells: dissociated primary bovine (calf) parathyroid cells. The conditions noted are these: EC50 for mobilization of intracellular Ca2+; bovine parathyroid cells.
Experimental: This section describes procedures used to obtain and treat parathyroid cells from calves and humans. […] Human parathyroid glands, were obtained from patients undergoing surgical removal of parathyroid tissue for primary or uremic hyperparathyroidism (uremic HPT), and were treated similarly to bovine tissue.
Glands were trimmed of excess fat and connective tissue and then minced with fine scissors into cubes approximately 2-3 mm on a side. Dissociated parathyroid cells were prepared by collagenase digestion and then purified by centrifugation in Percoll buffer. The resultant parathyroid cell preparation was essentially devoid of red blood cells, adipocytes, and capillary tissue as assessed by phase contrast microscopy and Sudan black B staining. Dissociated and purified parathyroid cells were present as small clusters containing 5 to 20 cells.
The cells were then pelleted, resuspended in the same buffer, but lacking the ester, and incubated a further 15 minutes at 37° C. The cells were subsequently washed twice with PCB containing 0.5 mM CaCl2 and 0.5% BSA and maintained at room temperature (about 20° C.) Immediately before use, the cells were diluted five-fold with prewarmed 0.5 mM CaCl2-PCB to obtain a final BSA concentration of 0.1%. The concentration of cells in the cuvette used for fluorescence recording was 1−2×10^6/ml.
The fluorescence of indicator-loaded cells was measured at 37° C. in a spectrofluorimeter (Biomedical Instrumentation Group, University of Pennsylvania, Philadelphia, Pa.) equipped with a thermostated cuvette holder and magnetic stirrer using excitation and emission wavelengths of 340 and 510 nm, respectively. […] Leakage of dye is dependent on temperature and most occurs within the first 2 minutes after warming the cells in the cuvette. Dye leakage increases only very slowly thereafter. To correct the calibration for dye leakage, cells were placed in the cuvette and stirred at 37° C. for 2-3 minutes. The cell suspension was then removed, the cells pelleted, and the supernatant returned to a clean cuvette. […] This estimate was subtracted from the apparent Fmin.

Molecules are shown by their SMILES.

`COc1cccc([C@@H](C)NCCCc2ccccc2Cl)c1` [NPS R-568, (R)-(+)-N-[3-(2-chlorophenyl)propyl]-α-methyl-3-methoxybenzylamine]: the EC50 in test [1] (0.3 or 1 mM extracellular Ca2+, read-out: EC50 for increases in Cl- current) is about 3000 nM; in test [3], 2200 nM; in test [4], under 5000 nM. The hypocalcemic response entry in test [2] (oral administration) is “fails to elicit a hypocalcemic response”.

In the case of `COc1cccc([C@@H](C)NCCCc2ccccc2)c1` (single isomer, unassigned) [NPS R-467], the “change in serum ionized Ca2+” value in test [2] (10 mg/kg i.p., over 6 hours) was “did not cause any change in serum ionized Ca^2+ levels”. The EC50 is 1900 nM in test [3] and under 5000 nM in test [4].

On to `NC[C@@H]1O[C@H](O[C@H]2[C@@H](O)[C@H](O[C@@H]3[C@@H](O)[C@H](N)C[C@H](N)[C@H]3O[C@H]3O[C@H](CN)[C@@H](O)[C@H](O)[C@H]3N)O[C@@H]2CO)[C@H](N)[C@@H](O)[C@@H]1O` [Neomycin B, neomycin B], for which the “concentrations producing changes in Cl- current” value in test [1] is 20 to 100 µM.

The values are drawn from patent US20130190407A1, “CALCIUM RECEPTOR-ACTIVE MOLECULES” (NPS Pharmaceuticals, Inc., priority 1991, published 2013).
